Laboratory results taken from patent publication US20050155093A1, “Rabbit nuclear cloning method and uses thereof” (Institute National de Ia Recherche Agronomique, priority 2002, published 2005).
Several values for one entry are separate records, joined by “and”; a condition that tells them apart may be missing. Equal entries are not always repeated.

System: rabbit MII oocytes
Assay: In vitro development after parthenogenic activation of rabbit oocytes (electrical activation, then incubation in M199 with drug)
Assay type: cell-based
Description: Metaphase II (MII) oocytes are collected from superovulated “New Zealand” rabbits by injections of FSH hormones followed by an injection of HCG hormone, mated with a vasectomized male 16 hours after injection of human choriogonadotrophin (hCG). The oocytes are then incubated in 0.5% hyaluronidase for 15 min (Sigma) in order to remove the cumulus cells by gentle pipeting. For the nuclear transfer, the oocytes are enucleated as previously described (Adenot et al., 1997). Simultaneously, cumulus cells are collected either from rabbits of “New Zealand” breed or from F1 rabbits obtained by a cross between rabbits of “New Zealand” breed crossed with rabbits of “Fauves de Bourgogne” breed or “New Zealand” transgenic F1 female rabbits containing a DNA construct with a sequence encoding the enhanced green fluorescence protein (eGFP) placed under the control of an EF1 (“elongation factor 1”) promoter or of an HMG promoter. The eGFP fluorescence and the PCR amplification reactions are used as markers for the cumulus donor cells. The cumulus cells are then stored at 38° C. in PBS without calcium or magnesium supplemented with 1% PVP 40 000 (polyvinylpyrrolidone (PVP)) which are then used as nucleus donor cells.
To reconstruct the embryos by nuclear transfer (NT), individual cumulus cells are inserted by micromanipulation into the zona pellucida of the enucleated oocytes. The embryos obtained by nuclear transfer (NT embryos) and the MII oocytes are activated in the following manner: 2 phases of electrical stimulations are applied 1 hour apart with a Grass stimulator (3 pulses of continuous current of 3.2 kV×cm^−1 for 20 μs each in 0.3 M mannitol containing 0.1 mM of Ca^2+ and of Mg^2+), the first phase inducing the fusion of the oocyte and of the cumulus cell. The reconstituted embryos are maintained for one hour in a culture medium at 38° C. […] After extensive washing to remove the drugs, the cells are again placed in culture in a microdrop of 50 μl of B2 medium supplemented with 2.5% fetal calf serum (FCS) in mineral oil (Sigma M8410) at 38° C. under an atmosphere saturated with 5% CO2. This activation protocol is applied to the NT embryos about 18 to 20 hours after mating of the donors.
The microtubular organization and the chromatin in the NT embryos at the 1 cell stage are observed as previously described (Adenot et al., 1997), except that the fixing state lasts for 20 min at 37° C. and that the mounting medium is Vectashield (Vector Laboratories). The rates of cleavage of the NT embryos and of the parthenotes are evaluated from 21 hours to 23 hours after electrostimulation. The rates of development up to the blastocyst stage are estimated after an in vitro culture of 3 to 4 days. For the evaluation of the number of cells, the embryos are fixed as previously described, and then stained with Hoechst […] at 1 μg/ml and then mounted on slides with wells in Vectashield and analyzed by epifluorescence. The controls are blastocysts which either developed in vitro from a 1 cell embryo collected from a superovulated rabbit or which developed in vivo from nonsuperovulated females crossed with a male and then sacrificed 3 or 4 days later.

[1] = 30 min incubation in M199 + drug after electrical activation
[2] = 1 h incubation in M199 + drug after electrical activation
[3] = 1 h incubation in M199 + drug after electrical activation, cleavage at 2 cell stage
[4] = 4 h incubation in M199 + drug after electrical activation

Row | SMILES | Number of blastocysts [1] | Number of cleaved oocytes [1] | blastocysts (%) [1] [%] | cleaved oocytes (%) [1] [%] | Number of blastocysts [2] | Number of cleaved oocytes [2] | blastocysts (%) [2] [%] | cleaved oocytes (%) [3] | Number of blastocysts [4] | Number of cleaved oocytes [4] | blastocysts (%) [4] [%] | cleaved oocytes (%) [4] [%]
1 | CN(C)c1ncnc2nc[nH]c12 [6-DMAP, 6-dimethylaminopurine] | 32 | 43 | 66.7 | 89.6 | 38 and 35 | 46 and 47 | 72.9 | 96% and 95.8% and 97.9% | – | – | – | –
2 | C[C@@H]1C[C@@H]([C@H](O)CC2CC(=O)NC(=O)C2)C(=O)[C@@H](C)C1 [CHX, cycloheximide] | 19 | 41 | 39.6 | 85.4 | 24 | 45 | 50 | 94% and 93.7% | 25 | 47 | 52.1 | 97.9
